Marks after values point to notes of the source that are not given here.
Assays:
human monocytes = experiment: Western blot of tyrosine phosphorylation, JNK1 band shift, MAP kinase activation in monocytes; assay type: cell-based; conditions: 20 min
Description: After two washes with PBS containing 1 mM Na3 VO4 and 5 mM EDTA, the cells were scraped into 0.1 ml lysis buffer (1% Triton X-100, 20 mM Tris pH 8.0, 137 MM NaCl, 10% glycerol, 1 mM Na3 VO4, 2 mM EDTA, 1 mM PMSF, 20 μM leupeptin, 0.15 U/ml aprotinin). The lysate was placed on ice for 20 min and then centrifuged at 14,000 rpm for 10 min at 4° C. The samples (50 μg) were mixed with sample buffer (62.5 mM Tris/HCl, pH 6.8, 2.3% SDS, 100 mM DTT, and 0.05% bromophenol blue), boiled and, separated on 10% SDS-PAGE. The protein was then transferred onto 0.45 μm nitrocellulose membranes. The filter was blocked with 3% BSA and 1% ovalbumin (ICN Biomedicals, Inc.) in TBS (20 mM Tris/HCl, pH 7.5, 150 mM NaCl), probed with antibodies as indicated in the Results in TTBS (TBS containing 0.1% Tween 20), incubated with a second antibody in the buffer, and visualized by the ECL Western blotting detection system (Dong, Z., et al. J Exp. Med. (1993) 177:1071; Dong, Z. et al. J. Leukoc. Biol. (1993) 58:725).

C57BL/6 mice = experiment: Prevention of CPT-11 induced intestinal damage and morbidity by oral immunomodulator; assay type: in vivo, mouse; conditions: oral saline or JBT3002 0.1, 1.0 and 10 μg/dose in PC liposomes, then CPT-11 100 mg/kg i.p. 4 days
Description: Experimental Design and Methods. […] Tissue was harvested 7 days after the last injection (small intestine and colon distal to the cecum). Histology was prepared. Some mice were monitored for the presence of drug toxicity.
Example 6 has shown that 100, 150, and 200 mg/kg at 4 consecutive i.p. administrations are highly toxic to C57BL/6 mice.

human blood monocytes = experiment: ELISAs for TNF-α, IL-1β and IL-6 in human blood monocytes; assay type: cell-based
Description: Blood-cells buff coats were obtained on the day of collection from the Gulf Coast Regional Blood Center (Houston, Tex.). The buffy coats were diluted with HBSS and layered on to 15 ml of prescreened entotoxin-free lymphocyte separation medium (Ficoll-Hypaque; density: 1.077). After 10 min of centrigugation at 1500×g, the mononuclear fractions were collected, washed once, and resuspended in 20 ml of elutriation medium (2% human albumin-100 U/mi penicillin and 100 μg/ml streptomycin in PBS). Monocyte-rich fractions were isolated by countercurrent elutriation using a JE-6B elutriation rotator (B3eckman) as described in detail previously (Fidler, I. et al. Prog. Clin. Biol. Res. (1989) 288:169). At a speed of 3000 rpm and flow rate of 41 ml/min, the monocyte fraction was obtained; it contained >90-95% monocytes as identified by nonspecific esterase staining morphological examination; they were >95% viable as measured by the trypan blue exclusion test. The cells were incubated in serum-free EMEM for 18 h prior to assays.
After overnight incubation in serum-free EMEM, monocytes plated at the density of 1×10^5/38-mm^2well /200 μl of EMEM (96-well plates) were treated as indicated in the Results section. The culture supernatants were harvested and used immediately or stored at −70° C. The supernatants were diluted at 1:5 or 1:10 and assayed for cytokines using ELISA kits according to the manufacturer's instructions.

CT-26 colon carcinoma = experiment: Therapy of experimental liver metastasis of CT-26 colon carcinoma with CPT-11 and oral JBT 3002
CT-26P colon carcinoma = experiment: Combination therapy of CT-26P colon carcinoma with CPT-11 and oral liposomal JBT3002; assay type: in vivo, mouse; conditions: day 17
Description: This course of therapy was repeated weekly for about three weeks prior to tissue harvest. Experimental Groups/Procedures: 40 Balb/c mice were divided into 8 groups of 5 mice each. On day 0, the spleens of the mice were injected with 15,000 cultured CT-26P cells. The groups were then treated as follows: The spleens of Balb/c mice were injected with 15,000 cultured CT-26P colon carcinoma cells on day 0. […] Treated mice received two weeks of chemotherapy and three weeks of the macrophage activator. Tissues were harvested on day 17. The spleens and livers were weighed, the extent of metastasis was graded (denoted below) and histology prepared.

TG-Mø from C57BL/6 mice = experiment: NO production in TG macrophages by free-form and tablet JBT 3002; assay type: cell-based, mouse; conditions: 24 hr
Description: Preparation of tablet to free-form in water. Tablet placed in 10 ml sterile, pyrogen-free water for 2-3 min with shaking at room temperature, then 10 ml more water added using Lot PCOO2.115. At 100 μg/tablet, this gave 5 ug/ml active material. Solution opaque with “carrier”-appearing material. Settled to bottom. Placed at 37° C. for about 5 min. pH tested at 8.0. Two aliquots of 10 ml taken. One aliquot was taken to pH 1.5 by a single drop of concentrated HCl. Both samples were placed in a water bath at 37° C. for 30 min. The low pH sample was restored to pH 7.7 with NaOH (took about 5 drops of the NaOH, IN solution). The samples were brought to 50 ml by addition of water, and the final pH was 8.0 for the original and 7.43 for the low pH sample. The solutions were still slightly opaque and filtering with a 0.2 micron filter cleared the solution. Aliquots of about 25 ml were measured in an assay for NO production by macrophages and testing of the working dilution for endotoxin.

[1] = Table 15, oral JBT 3002 0.05 μg/dose 3 consecutive days and/or CPT-11 100 mg/kg 4 daily i.p., day 21
[2] = Table 16, oral JBT3002 0.05 μg dose thrice weekly 3 weeks and/or CPT-11 100 mg/kg i.p. once a week, day 24

N-hexadecanol-S-[2(R)-3-diodecanoyloxypropyl]-L-cysteinyl-L-alanyl-D-isoglutaminyl-glycyl-taurine sodium salt [JBT3002]
potency in triggering intracellular signaling pathways (human monocytes): significantly more potent than LPS | intestinal toxicity (histology) (C57BL/6 mice): the intestines were normal | incubation time at which TNF-α protein was detected (human blood monocytes; free-form JBT3002 1 ng/ml or MLV-JBT3002 100 nmol/well of 1 mg/300 μmol lipid): 2 h | concentration range inducing TNF-α production (human blood monocytes; monocytes treated for 8 h): 0.001 to 10 ng/mL | serum dependence of cytokine production (human blood monocytes; serum-free EMEM vs 5% FBS): not significantly altered in the absence of serum | dose producing similar therapeutic effects as 1.0 μg/dose of MLV-JBT 3002 (CT-26 colon carcinoma; Table 11): 0.01 μg/dose | Liver metastasis Incidence (CT-26 colon carcinoma; [1]): 9/10 | Liver weight (CT-26 colon carcinoma; [1]): 1.6 ± 0.2^e g | Spleen tumor Incidence (CT-26 colon carcinoma; [1]): 10/10 | Spleen tumor Mean tumor volume (CT-26 colon carcinoma; [1]): 88 ± 34^f mm^3 | Liver metastasis Incidence (CT-26 colon carcinoma; [2]): 9/10 | Liver weight (CT-26 colon carcinoma; [2]): 4.2 ± 1.6 g | Spleen tumor Incidence (CT-26 colon carcinoma; [2]): 8/10 | Spleen tumor Mean tumor volume (CT-26 colon carcinoma; [2]): 241 ± 84 mm^3 | potency relative to liposomal formulation (CT-26 colon carcinoma; Tables 12 and 14): more potent than liposomal formulation | Spleen Weights, mean (CT-26P colon carcinoma; oral JBT3002 1 μg/dose in PC liposomes 3x/week alone): 1.137 ± 0.628 grams | Liver Weights, mean (CT-26P colon carcinoma; oral liposomal JBT3002 1 μg/dose 3x/week alone): 1.842 ± 0.498 grams | nitrite (TG-Mø from C57BL/6 mice; Table 17, JBT 0.003 ng/ml, IFN-γ (10 U/ml)): 17.5 µM | nitrite (TG-Mø from C57BL/6 mice; Table 17, JBT 0.003 ng/ml, medium): 0 µM | nitrite (TG-Mø from C57BL/6 mice; Table 17, JBT 0.016 ng/ml, IFN-γ (10 U/ml)): 33.7 µM | nitrite (TG-Mø from C57BL/6 mice; Table 17, JBT 0.016 ng/ml, medium): 0 µM | nitrite (TG-Mø from C57BL/6 mice; Table 17, JBT 0.08 ng/ml, IFN-γ (10 U/ml)): 41 µM | nitrite (TG-Mø from C57BL/6 mice; Table 17, JBT 0.08 ng/ml, medium): 0 µM | nitrite (TG-Mø from C57BL/6 mice; Table 17, JBT 0.4 ng/ml, IFN-γ (10 U/ml)): 44.7 µM | nitrite (TG-Mø from C57BL/6 mice; Table 17, JBT 0.4 ng/ml, medium): 0 µM | nitrite (TG-Mø from C57BL/6 mice; Table 17, JBT 2 ng/ml, IFN-γ (10 U/ml)): 53.1 µM | nitrite (TG-Mø from C57BL/6 mice; Table 17, JBT 2 ng/ml, medium): 0 µM | nitrite (TG-Mø from C57BL/6 mice; Table 17, JBT 10 ng/ml, IFN-γ (10 U/ml)): 60.9* μM | nitrite (TG-Mø from C57BL/6 mice; Table 17, JBT 10 ng/ml, medium): 8.4 µM | nitrite (TG-Mø from C57BL/6 mice; Table 18, JBT3002 0.0001 ng/ml, 10 U/ml IFN-γ): 0 | nitrite (TG-Mø from C57BL/6 mice; Table 18, JBT3002 0.0001 ng/ml, medium): 0 | nitrite (TG-Mø from C57BL/6 mice; Table 18, JBT3002 0.001 ng/ml, 10 U/ml IFN-γ): 8.5 | nitrite (TG-Mø from C57BL/6 mice; Table 18, JBT3002 0.001 ng/ml, medium): 0 | nitrite (TG-Mø from C57BL/6 mice; Table 18, JBT3002 0.01 ng/ml, 10 U/ml IFN-γ): 19.5 | nitrite (TG-Mø from C57BL/6 mice; Table 18, JBT3002 0.01 ng/ml, medium): 0 | nitrite (TG-Mø from C57BL/6 mice; Table 18, JBT3002 0.1 ng/ml, 10 U/ml IFN-γ): 27.7 | nitrite (TG-Mø from C57BL/6 mice; Table 18, JBT3002 0.1 ng/ml, medium): 0 | nitrite (TG-Mø from C57BL/6 mice; Table 18, JBT3002 1 ng/ml, 10 U/ml IFN-γ): 37.7 | nitrite (TG-Mø from C57BL/6 mice; Table 18, JBT3002 1 ng/ml, medium): 0 | nitrite (TG-Mø from C57BL/6 mice; Table 18, JBT3002 10 ng/ml, 10 U/ml IFN-γ): 47.1 | nitrite (TG-Mø from C57BL/6 mice; Table 18, JBT3002 10 ng/ml, medium): 0.5

Reference: patent US20030017976A1, “Therapeutic properties of liposome-encapsulated immunomodulators” (priority 1998, published 2003)
